Square brackets hold non-standard residues; d marks the D form. Peptide text beside a SMILES is read from it. * marks the point of attachment. dPhe(4-NHCONH2) = NC(=O)Nc1ccc(C[C@@H](N)C(=O)O)cc1; Dihydroorotyl(S) = O=C1C[C@@H](C(=O)*)NC(=O)N1; dPhe(4-Cl) = N[C@H](Cc1ccc(Cl)cc1)C(=O)O; Phe(4-NH2) = Nc1ccc(C[C@H](N)C(=O)O)cc1; d2Nal = N[C@H](Cc1ccc2ccccc2c1)C(=O)O; Lys(iPr) = CC(C)NCCCC[C@H](N)C(=O)O; d3Pal = N[C@H](Cc1cccnc1)C(=O)O
Columns and labels:
Format in all cases: in vivo
men with BPH [1] = test: IPSS global QoL question, clinical trial in BPH patients
Description: (§1) For each patient, the following parameters were measured or assessed (using the methods discussed below), at time points of screening day 0 (e.g., −7 days, “baseline”), day 14, day 28, and day 42:
(§2) After the initial 6-week treatment period of the exploratory study had been completed, a 12-month follow-up period looking at long-term efficacy commenced. Interim data of the main efficacy variables (IPSS, IPSS Global QoL, prostate volume, urinary flow, and post-void residual volume—measured as set out below) after 6 months' follow-up are also presented herein at Tables 1, 2, 3, and FIG. 1b. FIG. 1b also includes IPSS data at 9 and 12 months.
Included in the IPSS is one item to evaluate QoL (i.e., IPSS-global QoL). The Global QoL Question was developed alongside the IPSS and was officially included as part of the IPSS in 1993 when the WHO formally recommended the IPSS for both symptom and QoL assessment. […] This question assesses the degree to which patients find their symptoms bothersome. Patients are asked about how they would feel if they were to spend the rest of their lives with their prostate symptoms just as they are now. The choices for answering this quality of life question range from “delighted” (rating=0) to “terrible” (rating=6).

men with BPH [2] = test: Peak (maximal) urinary flow by flowmetry
Description: as §1
2) Efficacy Endpoints—the measured Peak Urinary Flow, Post-void Residual Volume, and Prostate Volume.
Peak urinary flow was determined by flowmetry using the Uropower device (Wiest, World of Medicine AG, Germany). The device fulfilled the International Continence Society standards for maximum urinary flow. The measurement of urinary flow was done in a sitting position.
The Qmax is the maximal urinary flow rate. It is a traditional parameter used in BPH trials and is a good indicator of degree of bladder outlet obstruction (BOO).

men with BPH [3] = test: IPSS questionnaire (sum of scores), clinical trial in BPH patients
Description: as §1, §2
The IPSS was developed in 1991 by the American Urological Association to assess the severity of urinary symptoms related to BPH (Barry, M. J., et al., The American Urological Association symptom index for benign prostatic hyperplasia. The Measurement Committee of the American Urological Association. J Urol, 1992. 148(5): p. 1549-57; discussion 1564). The IPSS has been widely used in clinical studies, has undergone extensive validation, and its psychometric properties are well documented in both the original version (containing a 1-month recall) as well as the ‘acute’ version used in this study (containing a one-week recall). The WHO recommended the use of this instrument for the evaluation of BPH, and it is considered to be the internationally accepted, standard questionnaire for assessing lower urinary tract symptoms.
The patients completed the IPSS questionnaire to evaluate their urinary symptoms. The IPSS is a patient-administered questionnaire containing seven items to evaluate symptoms of urinary obstruction (i.e., incomplete emptying, frequency, hesitancy, urgency, weak stream, straining, nocturia) over the preceding week. Each urinary symptom question is assigned points from 0 to 5 indicating increasing severity of the particular symptom. The total score can therefore range from 0 to 35 (0-7: mildly symptomatic; 8-19: moderately symptomatic; 20-35: severely symptomatic). A reduction in total score over the treatment period is indicative of prostate symptom improvement.

[4] = 16+16 mg, Month 6 follow-up, n=6
[5] = 32+32 mg, Month 6 follow-up, n=7
[6] = combined group (all doses), Day 42
[7] = across all patient groups, Day 42

Compound: CC(=O)N[C@H](Cc1ccc2ccccc2c1)C(=O)N[C@H](Cc1ccc(Cl)cc1)C(=O)N[C@H](Cc1cccnc1)C(=O)N[C@@H](CO)C(=O)N[C@@H](Cc1ccc(NC(=O)[C@@H]2CC(=O)NC(=O)N2)cc1)C(=O)N[C@H](Cc1ccc(NC(N)=O)cc1)C(=O)N[C@@H](CC(C)C)C(=O)N[C@@H](CCCCNC(C)C)C(=O)N1CCC[C@H]1C(=O)N[C@H](C)C(N)=O [Degarelix, D-Alaninamide, N-acetyl-3-(2-naphthalenyl)-D-alanyl-4-chloro-D-phenylalanyl-3-(3-pyridinyl)-D-alanyl-L-seryl-4-[[[(4S)-hexahydro-2,6-dioxo-4-pyrimidinyl]carbonyl]amino]-L-phenylalanyl-4-[(aminocarbonyl)amino]-D-phenylalanyl-L leucyl-N6-(1-methylethyl)-L-lysyl-L-prolyl] (Ac-[d2Nal][dPhe(4-Cl)][d3Pal]S[Phe(4-NH2)](Dihydroorotyl(S))[dPhe(4-NHCONH2)]L[Lys(iPr)]P[dA]-NH2)
- Mean IPSS global QoL score, mean (SD) (men with BPH [1]; 32 mg, Day 42, N=12): 1.8 (2.0)
- Mean change from baseline in IPSS global QoL score, mean (SD) (men with BPH [1]; 32 mg, Day 42, N=12): −2.1 (3.0)
- Change from baseline in IPSS global QoL score, mean (SD) (men with BPH [1]; 32 mg, Month 6 follow-up, n=7): −1.4 (1.1)
- Mean IPSS global QoL score, mean (SD) (men with BPH [1]; 32 mg, Month 6 follow-up, n=7): 1.4 (1.5)
- Mean IPSS global QoL score, mean (SD) (men with BPH [1]; 64 mg, Day 42, N=13): 2.5 (1.3)
- Mean change from baseline in IPSS global QoL score, mean (SD) (men with BPH [1]; 64 mg, Day 42, N=13): −2.2 (1.6)
- Change from baseline in IPSS global QoL score, mean (SD) (men with BPH [1]; 64 mg, Month 6 follow-up, n=4): −0.8 (1.7)
- Mean IPSS global QoL score, mean (SD) (men with BPH [1]; 64 mg, Month 6 follow-up, n=4): 3.8 (1.3)
- Mean IPSS global QoL score, mean (SD) (men with BPH [1]; 16+16 mg, Day 42, N=13): 2.9 (1.4)
- Mean change from baseline in IPSS global QoL score, mean (SD) (men with BPH [1]; 16+16 mg, Day 42, N=13): −1.2 (1.4)
- Change from baseline in IPSS global QoL score, mean (SD) (men with BPH [1]; [4]): −0.3 (0.5)
- Mean IPSS global QoL score, mean (SD) (men with BPH [1]; [4]): 4.2 (1.5)
- Mean IPSS global QoL score, mean (SD) (men with BPH [1]; 32+32 mg, Day 42, N=12): 1.9 (1.6)
- Mean change from baseline in IPSS global QoL score, mean (SD) (men with BPH [1]; 32+32 mg, Day 42, N=12): −2.4 (1.9)
- Change from baseline in IPSS global QoL score, mean (SD) (men with BPH [1]; [5]): −2.7 (2.1)
- Mean IPSS global QoL score, mean (SD) (men with BPH [1]; [5]): 1.6 (0.8)
- Patients feeling delighted, pleased, or mostly satisfied (IPSS Global QoL scores 0-2) (men with BPH [1]; [6]): 58%
- Patients feeling unhappy or terrible (IPSS Global QoL scores 5 and 6) (men with BPH [1]; [6]): 12%
- Mean maximal urinary flow (men with BPH [2]; 32 mg, Day 42 (baseline 11.7)): 11.2 mL/s
- Mean maximal urinary flow (men with BPH [2]; 64 mg, Day 42 (baseline 9.1)): 11.9 mL/s
- Mean maximal urinary flow (men with BPH [2]; 16+16 mg, Day 42 (baseline 10.0)): 10.1 mL/s
- Mean maximal urinary flow (men with BPH [2]; 32+32 mg, Day 42 (baseline 9.7)): 12.2 mL/s
- Number of patients in whom maximal urinary flow decreased compared to baseline (men with BPH [2]; [7]): 25 patients
- Number of patients in whom maximal urinary flow increased compared to baseline (men with BPH [2]; [7]): 24 patients
- Number of patients in whom maximal urinary flow remained unchanged (men with BPH [2]; [7]): 1 patient
- Improvements in mean sum of IPSS scores (men with BPH [3]; 32 mg and 32+32 mg groups, 9 and 12 months (FIG. 1b)): still indicated
- Mean change from baseline in IPSS score, mean (SD) (men with BPH [3]; 32 mg s.c. (Day 0), Day 14, N=12): −7.8 (8.7)
- Percentage responders (decrease in IPSS of at least 30% as compared to baseline) (men with BPH [3]; 32 mg, Day 42): 92%
- Mean IPSS score, mean (SD) (men with BPH [3]; 32 mg, Day 42, N=12): 9.1 (6.2)
- Mean change from baseline in IPSS score, mean (SD) (men with BPH [3]; 32 mg, Day 42, N=12): −13.2 (6.6)
- Mean change from baseline in IPSS score, mean (SD) (men with BPH [3]; 32 mg, Day 42, N=12, listed as degarelix): −13.2
- Mean IPSS score, mean (SD) (men with BPH [3]; 32 mg, Month 6 follow up, n=7): 10.4 (6.3)
- Mean change from baseline in IPSS score, mean (SD) (men with BPH [3]; 32 mg, Month 6 follow up, n=7): −11.6 (8.3)
- Percentage responders (decrease in IPSS of at least 30% as compared to baseline) (men with BPH [3]; 32 mg, Month 6 follow up, n=7): 86%
- Mean change from baseline in IPSS score, mean (SD) (men with BPH [3]; 64 mg s.c. (Day 0), Day 14, N=13): −8.0 (4.0)
- Percentage responders (decrease in IPSS of at least 30% as compared to baseline) (men with BPH [3]; 64 mg, Day 42): 85%
- Mean IPSS score, mean (SD) (men with BPH [3]; 64 mg, Day 42, N=13): 11.8 (5.9)
- Mean change from baseline in IPSS score, mean (SD) (men with BPH [3]; 64 mg, Day 42, N=13): −10.0 (5.0)
- Mean change from baseline in IPSS score, mean (SD) (men with BPH [3]; 64 mg, Day 42, N=13, listed as degarelix): −10.0
- Mean IPSS score, mean (SD) (men with BPH [3]; 64 mg, Month 6 follow up, n=4): 16.0 (8.7)
- Mean change from baseline in IPSS score, mean (SD) (men with BPH [3]; 64 mg, Month 6 follow up, n=4): −4.0 (3.6)
- Mean change from baseline in IPSS score, mean (SD) (men with BPH [3]; 16+16 mg s.c. (Day 0 + Day 14), Day 14, N=13): −3.2 (5.4)
